According to US20200002377A1, “COMPOUNDS USEFUL FOR THE TREATMENT AND/OR CARE OF THE SKIN, HAIR, NAILS AND/OR MUCOUS MEMBRANES” (LUBRIZOL ADVANCED MATERIALS, INC., priority 2016, published 2020):
Residues, ends and D or L forms follow the SMILES beside them. *: point of attachment. Palmitoyl = CCCCCCCCCCCCCCCC(=O)*; NHhexadecyl = CCCCCCCCCCCCCCCCN*; NHHex = CCCCCCN*

Legend:
[1] = tested on: Staphylococcus epidermidis; test: Adherence of Staphylococcus epidermidis in keratinocytes (HaCaT) in competition with S. aureus bioparticles; assay type: cell-based; conditions: 50 μg/ml, 24 h, basal = 0
Procedure: After that treatment, cells are washed with phosphate-buffered saline (PBS, Sigma) and are then incubated with a solution of Staphylococcus epidermidis (ATCC®12228™, Culture Collections) treated with green-fluorescence calcein AM (Life technologic) and Alexa Fluor 594™ Bioparticles Staphylococcus aureus (ThermoFisher) in PBS for 30 minutes at 37° C. and protected from light. At the end of the incubation period, cells are washed with PBS and fixed in 4% (v/v) paraformaldehyde (PFA, Sigma) for 30 minutes. After rinsing with PBS, the nuclei are stained with Hoechst 33342, trihydrochloride trihydrate (ThermoFisher) in PBS for 10 minutes before analysis.
Cellular imaging is performed by fluorescence microscopy using the Operetta® High Content Imaging System (PerkinElmer). From each fluorescence image, Staphylococcus epidermidis is quantified as a number of spots and normalized against the number of keratinocyte nuclei and the total bacteria number (understood as the addition of detected S. epidermidis spots and S. aureus bioparticles). Each value obtained is normalized respect to basal conditions (non-treated keratinocytes). An image is taken in three different fields per well. 12 representative images from each condition are analyzed with Harmony software (PerkinElmer).
The normalized percentage of Staphylococcus epidermidis respect to basal conditions in treated keratinocytes is represented in Table 17.

[2] = tested on: Nuclear Factor Kappa B subunit 1 (NFKB1); test: Innate immune response gene expression in HEKa, real time PCR array; assay type: cell-based, human; conditions: 50 μg/ml, 24 h
Procedure: HEKa cells (Life Technologies) are seeded at 6.0×10^5 cells/well in 6-well plates and incubated in culture medium Epillfe™ with defined Growth Supplement (EDGS, Life Technologies), at 37° C. in a water-saturated atmosphere of 95% air and 5% CO2. After 24 hours of incubation under these conditions, medium is removed and cells are incubated with 50 μg/ml (w/v) of a peptide of the invention (see Table 16) in fresh culture medium keeping two wells where HEKa cells are incubated with medium only (basal conditions) at 37° C. and 5% CO2.
After 24 h of incubation, the cells are lysed directly in the wells following the protocol described on the RNeasy™ Mini kit (Qiagen) according to the manufacturer's protocol. The lysed cells are homogenized and the RNases are inactivated. The genomic DNA is removed from the samples by using gDNA Eliminator spin columns (Qiagen). Then the samples are passed through special RNA binding columns (Qiagen) and, after several microcentrifugation washes to eliminate contaminants and impurities, the purified RNA is eluted with 50 μl of ultrapure water. Quantification and analysis of purity of RNA samples are performed after RNA elution with a biophotometer (Eppendorf). 1 μg of high-quality RNA is retrotranscribed with iScript™ advanced (BioRad) in a final volume of 20 μl·Complete reaction mix is incubated in a thermal cycler (Eppendorf) at 42° C. for 30 minutes, and the reactions are stopped at 85° C. for 5 minutes. Complementary DNA is amplified by qPCR in a real-time PCR thermocycler (BioRad) using SYBR®Green supermix (BioRad) and a customized plate for use with SYBR®Green (BioRad). SYBR®Green binds to double-stranded DNA molecules and emits fluorescence which is quantified and is proportional to the amount of the product in the PCR reaction. Cycling conditions in BioRad CFX96™ instrument are 95° C. for 3 minutes, followed by 40 cycles of denaturing at 95° C. for 5 seconds, annealing and elongation at 60° C. for 30 seconds. GAPDH (Glyceraldehyde 3-phosphate dehydrogenase), TBP (TATA box binding protein) and HRPT1 (hypoxanthine phosphoribosyltransferase 1) are used as endogenous controls. Fold change relative to the expression of the sample genes and reference genes is calculated using normalized expression (ΔΔ(Ct)) method with default threshold values using CFX Manager Software (BioRad).
Genes analyzed are Chemokine (C-C motif) Ligand 5 (CCL5), Myeloid Differentiation primary response gene 88 (MyD88), Nuclear Factor Kappa B subunit 1 (NFKB1) and interferon Regulatory Factor 3 (IRF3).

Compound | S. epidermidis (%), normalized percentage respect to basal conditions [1] [%] | NFKB1 fold induction respect to basal conditions [2]
CCCCCCNC(=O)[C@H](CC(=O)O)NC(=O)[C@H](C)NC(=O)[C@H](CCCNC(=N)N)NC(=O)[C@H](CCCNC(=N)N)NC(=O)[C@H](CCC(N)=O)NC(=O)[C@H](CCSC)NC(=O)[C@H](CCC(=O)O)NC(=O)[C@H](CCC(=O)O)NC(C)=O [PEP-34, Ac-Glu-Glu-Met-Gln-Arg-Arg-Ala-Asp-NHC6H13] (Ac-EEMQRRAD-NHHex) | 61.59 | 2.59
CCCCCCCCCCCCCCCC(=O)N[C@@H](CCC(=O)O)C(=O)N[C@@H](CCC(=O)O)C(=O)N[C@@H](CCSC)C(=O)N[C@@H](CCC(N)=O)C(=O)N[C@@H](CCCNC(=N)N)C(=O)N[C@@H](CCCNC(=N)N)C(=O)N[C@@H](C)C(=O)N[C@@H](CC(N)=O)C(N)=O [PEP-28, Palm-Glu-Glu-Met-Gln-Arg-Arg-Ala-Asn-NH2] (Palmitoyl-EEMQRRAN-NH2) | 39.68 | 2.65
Ac-EEMQRRAD-OH [PEP-4, Ac-Glu-Glu-Met-Gln-Arg-Arg-Ala-Asp-OH] | 25.36 | 2.55
Ac-DEMQRR-NH2 [PEP-51, Ac-Asp-Glu-Met-Gln-Arg-Arg-NH2] | 65.15 | 2.41
Ac-EDMQRR-NH2 [PEP-49, Ac-Glu-Asp-Met-Gln-Arg-Arg-NH2] | 5.86 | 1.55
Ac-EEMQRRPD-NH2 [PEP-22, Ac-Glu-Glu-Met-Gln-Arg-Arg-Pro-Asp-NH2] | 81.90 | 2.69
Ac-EEMDRRA-NH2 [PEP-42, Ac-Glu-Glu-Met-Asp-Arg-Arg-Ala-NH2] | 12.36 | 2.70
Ac-EEMQRRS-NH2 [PEP-37, Ac-Glu-Glu-Met-Gln-Arg-Arg-Ser-NH2] | 7.49 | 2.88
CCCCCCCCCCCCCCCC(=O)N[C@@H](CCC(=O)O)C(=O)N[C@@H](CCC(=O)O)C(=O)N[C@@H](CCSC)C(=O)N[C@@H](CCC(N)=O)C(=O)N[C@@H](CCCNC(=N)N)C(=O)N[C@@H](CCCNC(=N)N)C(=O)N[C@@H](C)C(=O)N[C@@H](CC(N)=O)C(=O)O [PEP-33, Palm-Glu-Glu-Met-Gln-Arg-Arg-Ala-Asn-OH] (Palmitoyl-EEMQRRAN-OH) | 58.74 | 2.63
Ac-EEMNRRAD-NH2 [PEP-12, Ac-Glu-Glu-Met-Asn-Arg-Arg-Ala-Asp-NH2] | 14.00 | 2.58
Ac-EEMQRRAN-NH2 [PEP-18, Ac-Glu-Glu-Met-Gln-Arg-Arg-Ala-Asn-NH2] | 26.35 | 2.69
Ac-EEMQRRAQ-NH2 [PEP-19, Ac-Glu-Glu-Met-Gln-Arg-Arg-Ala-Gln-NH2] | 81.69 | 2.73
CCCCCCNC(=O)[C@H](CC(=O)O)NC(=O)[C@H](C)NC(=O)[C@H](CCCNC(=N)N)NC(=O)[C@H](CCCNC(=N)N)NC(=O)[C@H](CCC(N)=O)NC(=O)[C@H](CCSC)NC(=O)[C@H](CCC(=O)O)NC(=O)[C@@H](N)CCC(=O)O [PEP-36, H-Glu-Glu-Met-Gln-Arg-Arg-Ala-Asp-NHC6H13] (H-EEMQRRAD-NHHex) | 29.93 | 2.53
CCCCCCCCCCCCCCCCNC(=O)[C@H](CCCNC(=N)N)NC(=O)[C@H](CCCNC(=N)N)NC(=O)[C@H](CCC(N)=O)NC(=O)[C@H](CCSC)NC(=O)[C@H](CCC(=O)O)NC(=O)[C@H](CCC(=O)O)NC(C)=O [PEP-7, Ac-Glu-Glu-Met-Gln-Arg-Arg-NHC16H33] (Ac-EEMQRR-NHhexadecyl) | 11.43 | 3.09
CCCCCCCCCCCCCCCC(=O)N[C@@H](CCC(=O)O)C(=O)N[C@@H](CCC(=O)O)C(=O)N[C@@H](CCSC)C(=O)N[C@@H](CCC(N)=O)C(=O)N[C@@H](CCCNC(=N)N)C(=O)N[C@@H](CCCCN)C(N)=O [PEP-59, Palm-Glu-Glu-Met-Gln-Arg-Lys-NH2] (Palmitoyl-EEMQRK-NH2) | 4.63 | 1.77
Ac-EEMQKR-NH2 [PEP-46, Ac-Glu-Glu-Met-Gln-Lys-Arg-NH2] | 3.97 | 2.03
Ac-EEMERRAD-OH [PEP-31, Ac-Glu-Glu-Met-Glu-Arg-Arg-Ala-Asp-OH] | 29.41 | 2.24
Ac-DEMQRRAD-NH2 [PEP-8, Ac-Asp-Glu-Met-Gln-Arg-Arg-Ala-Asp-NH2] | 20.45 | 2.04
Ac-EEMNRR-NH2 [PEP-48, Ac-Glu-Glu-Met-Asn-Arg-Arg-NH2] | 18.02 | 1.48
H-EEMQRR-NH2 [PEP-56, H-Glu-Glu-Met-Gln-Arg-Arg-NH2] | 15.75 | 1.90
